Data set [1] can be described thus: Metabolic stability assay, hepatic S9 fraction incubation (rat). In kind it is in vitro ADME. The following applies: rat liver S9 fraction 2.0 mg/mL protein, 1.0 μM substrate, 1.0 mM NADPH, 37° C., 30 minutes. As for the experimental part: (§1) In order to determine the metabolic stability of each of the tested compounds, the following assay conditions were used: 100 mM-phosphate buffer, 1.0 mM NADPH, 3.3 mM magnesium chloride, 2.0 mg/mL protein from Hepatic S9 Fraction and 1.0 μM of substrate.
(§2) The assay was performed on a 96-well conical shaped plate with a volume of 200 μL, after addition of methanol. For each species, a set of samples was prepared as shown below (volumes are in μL).
(§3) The plate was sealed and incubated in a Thermal Mixer at 37° C. for 30 minutes at 400 rpm. 100 μL of methanol was added to each well and the plate was mixed for several minutes and then covered with an aluminum seal. Finally, the plate was centrifuged at 1000 rpm for 10 minutes.
(§4) The assay was analyzed using liquid chromatography and positive ion electrospray mass spectrometry. The chromatography column used was Agilent Zorbax SB-C18 (3.0×150 mm, 5 μm) with a flow rate of 0.5 mL/min.
(§5) Calculations were performed to determine the percent remaining, which is calculated by dividing the Peak Area Ratio of the analyte measured in the active protein versus the Peak Area Ratio of the analyte measured in the inactivated protein sample. The Peak Area Ratio is defined as the peak area of the analyte divided by the peak area of the internal standard. Analyte is defined as the substrate of a specific measurable metabolite.

The nature of data set [2]: Metabolic stability assay, hepatic S9 fraction incubation (human). In kind it is in vitro ADME. To be noted: human liver S9 fraction 2.0 mg/mL protein, 1.0 μM substrate, 1.0 mM NADPH, 37° C., 30 minutes. How it is done: as §1, §2, §3, §4, §5
The nature of data set [3]: Bioavailability and prodrug conversion in male rats. Format: in vivo. The following applies: Crl:CD(SD)BR, rat, blood, fasted, oral 10 mg free base of active moiety per kg, IV 1 mg free base/kg, LC-MS/MS, read-out: BA (bioavailability of prodrug after oral adminstration). How it is done:
Healthy male rats [Crl:CD(SD)BR] were obtained from Charles River Breeding Laboratory (Canada). […] The animals weighed 250 to 320 g and were individually identified by labeling on each metabolism cage. The rats were housed in individual metabolism cages during dosing and sample collections. The animals were acclimated to a diet of Purina Rodent Chow #5002 (Ralston Purina, St. Louis, Mo.) for at least 5 days and were fasted for 15-20 hours prior to the administration of the compound. Food was available from 4 hours after dose administration and ad libitum throughout the remainder of the study.
Each animal received the prodrug orally at an equivalent dose of 10 mg of free base of active moiety per kg of body weight or active moiety orally at an equivalent dose of 10 mg equivalent free base per kg body weight. For intravenous (IV) study, the animals received 1 mg free base/kg body weight. Sufficient amount of the test article was dissolved in appropriate vehicle (See table below) such that the final concentration of dose solution was 2.0 mg free base/mL and 0.5 mg free base/mL for oral and IV doses, respectively. The dose volume was 5 mL/kg and 2 mL/kg for oral and IV doses, respectively
Blood samples were collected from the jugular vein at specified time intervals. Concentrations of test article and/or prodrug were analyzed using a LC-MS/MS procedure.
Model independent pharmacokinetic parameters (Cmax, Tmax, AUC, T1/2, CL, Vss) were obtained using Watson computer program. The bioavailability (BA) was calculated as follows: [formula]
The percentages of conversion of prodrug to active moiety was calculated using the following equation: [formula]
“AUC” represents area under the curve.

Data on 17 compounds can be found in patent US20040082585A1, “Prodrugs of substituted polycyclic compounds useful for selective inhibition of the coagulation cascade” (Pharmacia Corporation, priority 2001, published 2004).

The structures appear in SMILES notation.

On to `CC(C)Nc1ncc(-c2cc(N)cc(C(F)(F)F)c2)n(CC(=O)NCc2ccc(C3=NC(C)(C)ON3)cc2)c1=O` [Compound 5], for which the “S9 Rat (percent remaining)” value in data set [1] was 13%. In addition, the “S9 Hum. (percent remaining)” value in data set [2] stood at 0.50%. In addition, the bioavailability in data set [3] amounted to 5%.

On to `CC(C)Nc1ncc(-c2cc(N)cc(C(F)(F)F)c2)n(CC(=O)NCc2ccc(/C(N)=N/OC(=O)OC(C)C)cc2)c1=O` [Compound 20], for which the bioavailability in data set [3] amounted to 2%.

For the compound `CCOC(=O)O/N=C(\N)c1ccc(CNC(=O)Cn2c(-c3cc(N)cc(C(F)(F)F)c3)cnc(NC(C)C)c2=O)cc1` [Compound 7], the “S9 Rat (percent remaining)” value in data set [1] stood at 54%. Also, the “S9 Hum. (percent remaining)” value in data set [2] amounted to 5%.

For `CC(C)Nc1ncc(-c2cc(N)cc(C(F)(F)F)c2)n(CC(=O)NCc2ccc3c(N)noc3c2)c1=O` [Compound 6], the bioavailability in data set [3] turned out to be 7%.

With `COC(=O)c1cc(N)cc(-c2cnc(NC(C)C)c(=O)n2CC(=O)NCc2ccc(C(=N)NO)cc2)c1` [Compound 12], the bioavailability in data set [3] came out at 3%.

`CC(C)Nc1ncc(-c2cc(N)cc(C(F)(F)F)c2)n(CC(=O)NCc2ccc(C(=N)NOCc3ccccc3)cc2)c1=O` [Compound 29]: the “S9 Rat (percent remaining)” value in data set [1] was determined as 14%. Moreover, the “S9 Hum. (percent remaining)” value in data set [2] came to 17%.

For `CCCCOC(=O)O/N=C(\N)c1ccc(CNC(=O)Cn2c(-c3cc(N)cc(C(F)(F)F)c3)cnc(NC(C)C)c2=O)cc1` [Compound 11], in data set [1], the “S9 Rat (percent remaining)” value is given as 44%. Moreover, the “S9 Hum. (percent remaining)” value in data set [2] amounted to 40%.

As to `CC(C)Nc1ncc(-c2cc(N)cc(C(F)(F)F)c2)n(CC(=O)NCCc2c(F)c(F)c3c(N)noc3c2F)c1=O` [Compound 15], the “S9 Rat (percent remaining)” value in data set [1] stood at 25%. Besides, in data set [2], the “S9 Hum. (percent remaining)” value is reported as 39%. The bioavailability in data set [3] turned out to be 4%.

As for `CC(C)Nc1ncc(-c2cc(N)cc(C(F)(F)F)c2)n(CC(=O)NCc2ccc3c(N)nc(=O)oc3c2)c1=O` [Compound 9], in data set [1], the “S9 Rat (percent remaining)” value was 0%. In addition, the “S9 Hum. (percent remaining)” value in data set [2] stood at 0%. Further, in data set [3], the bioavailability is 1%.

Regarding `CC(C)Nc1ncc(-c2cc(N)cc(NC(=O)C(C)C)c2)n(CC(=O)NCc2ccc(C(=N)NO)cc2)c1=O` [Compound 18], the “S9 Rat (percent remaining)” value in data set [1] is 36%. Also, the “S9 Hum. (percent remaining)” value in data set [2] was 5%.

In the case of `COc1ccc(OC(=O)O/N=C(\N)c2ccc(CNC(=O)Cn3c(-c4cc(N)cc(C(F)(F)F)c4)cnc(NC(C)C)c3=O)cc2)cc1` [Compound 24], the “S9 Rat (percent remaining)” value in data set [1] worked out at 1%. In addition, in data set [2], the “S9 Hum. (percent remaining)” value amounted to 1%.

Turning to `CC(C)Nc1ncc(-c2cc(N)cc(C(F)(F)F)c2)n(CC(=O)NCc2ccc(C3=NOC(C)(c4ccccc4)N3)cc2)c1=O` (stereo not shown) [Compound 25], the “S9 Rat (percent remaining)” value in data set [1] is reported as 13%. For the same compound, the “S9 Hum. (percent remaining)” value in data set [2] is 3%.

As to `CC(C)Nc1ncc(-c2cc(N)cc(C(F)(F)F)c2)n(CC(=O)NCc2ccc(C(=N)NO)cc2)c1=O` [Compound 1], the “S9 Rat (percent remaining)” value in data set [1] was 11%. The “S9 Hum. (percent remaining)” value in data set [2] stood at 2%.

For the compound `CCNC(=O)O/N=C(\N)c1ccc(CNC(=O)Cn2c(-c3cc(N)cc(C(F)(F)F)c3)cnc(NC(C)C)c2=O)cc1` [Compound 14], the “S9 Rat (percent remaining)” value in data set [1] was determined as 1%. Also, the “S9 Hum. (percent remaining)” value in data set [2] amounted to 1%. Besides, the bioavailability in data set [3] turned out to be 1%.

On to `CCONC(=N)c1ccc(CNC(=O)Cn2c(-c3cc(N)cc(C(F)(F)F)c3)cnc(NC(C)C)c2=O)cc1` [Compound 8], for which the “S9 Rat (percent remaining)” value in data set [1] is on record as 3%. Further, the “S9 Hum. (percent remaining)” value in data set [2] turned out to be 1%. In addition, the bioavailability in data set [3] is 20%.

For `CC(C)COC(=O)O/N=C(\N)c1ccc(CNC(=O)Cn2c(-c3cc(N)cc(C(F)(F)F)c3)cnc(NC(C)C)c2=O)cc1` [Compound 16], the “S9 Rat (percent remaining)” value in data set [1] came out at 0%. In data set [2], the “S9 Hum. (percent remaining)” value was determined as 0%.

Consider `CONC(=N)c1ccc(CNC(=O)Cn2c(-c3cc(N)cc(C(F)(F)F)c3)cnc(NC(C)C)c2=O)cc1` [Compound 4], for which the “S9 Rat (percent remaining)” value in data set [1] was found to be 0%. Moreover, in data set [2], the “S9 Hum. (percent remaining)” value was found to be 0%. The bioavailability in data set [3] worked out at 17%.
